Values of other authors in US8372797B2, “Treatment of erectile dysfunction by stem cell therapy” (Creative Medical Health, Inc., priority 2006, dated 2013).

Legend:
[1] = system: hypercholesterolemic rabbits; settings: two 2.5 microgram doses separated by a 3-week interval into corporal tissue
[2] = system: diabetic rats; settings: intracavernous, gelatin microbeads
[3] = system: hypercholesterolemic rabbits; settings: systemic administration
[4] = system: model of rat diabetes associated ED; settings: exogenous administration

Substance	corporal relaxation and ability to generate NO [1]	erectile function [2]	histological changes in the corpus cavernosum [3]	erectile function [4]
bFGF: basic fibroblast growth factor, a known inducer of angiogenesis	increase corporal relaxation in response to chemical stimuli	protection of erectile function from diabetes mediated onset	favorable histological changes	–
superoxide dismutase	–	–	–	increase erectile function
